Data from PMC6787163, “Systematic Dual Targeting of Dendritic Cell C-Type Lectin Receptor DC-SIGN and TLR7 Using a Trifunctional Mannosylated Antigen” (Frontiers in Chemistry, 2019).
Where “and” joins values, the source holds several entries; their conditions need not be identical. Equal values may be shown once.

How the values were obtained:
DC-SIGN ECD = target: T1, DC-SIGN ECD (Homo sapiens, UniProt Q9NNX6); experiment: SPR competition (inhibition) assay, DC-SIGN ECD on BSA-mannotriose surface; format: binding; settings: DC-SIGN ECD 20 μM
T1 construct: The ECD of DC-SIGN (residues 66–404) was overexpressed and purified as previously described; made in house
T1 sequence (Q9NNX6 66-404): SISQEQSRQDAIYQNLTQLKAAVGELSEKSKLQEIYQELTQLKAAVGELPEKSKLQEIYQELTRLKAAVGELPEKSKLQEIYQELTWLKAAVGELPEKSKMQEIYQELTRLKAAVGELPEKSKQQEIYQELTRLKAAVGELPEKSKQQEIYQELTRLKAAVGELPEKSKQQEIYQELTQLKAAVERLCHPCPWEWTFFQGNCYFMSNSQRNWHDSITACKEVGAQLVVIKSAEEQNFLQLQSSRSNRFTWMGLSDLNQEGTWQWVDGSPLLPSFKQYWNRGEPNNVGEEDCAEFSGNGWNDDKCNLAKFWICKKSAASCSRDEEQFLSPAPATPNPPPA
Method: (§1) The affinity of the clusters for the extracellular domain (ECD) of the DC-SIGN receptor (DC-SIGN ECD) was estimated via surface plasmon resonance (SPR) assays (Tabarani et al., [2009]). The apparent Kd was calculated in direct interaction mode using a surface functionalized in an oriented manner with DC-SIGN ECD. In this assay, tetrameric DC-SIGN ECD is attached to the surface of the sensor chip via the N-terminus of its neck oligomerization domain, thus presenting its four carbohydrate recognition domains toward the solvent, realistically mimicking the presentation of the receptor on cell surface (Porkolab et al., [2019]). For some of the low affinity ligands, in the mM range, it was not possible to determine their affinity with this assay, and therefore a competition experiment was performed providing IC50 values (Timpano et al., [2008]) (Figure 3A). […] When comparing equivalent clusters, the α1,2-di-mannoside (B series) bound with the highest affinity (Figure 3A). […] A potential explanation for this effect could be that the spacing of clusters is more important for the larger tri-mannosides.
The ECD of DC-SIGN (residues 66–404) was overexpressed and purified as previously described (Tabarani et al., [2009]). The DC-SIGN S-ECD construct used for direct interaction experiment (see below) has been overexpressed and purified as described elsewhere (Porkolab et al., [2019]). The SPR competition experiments were performed on a BIAcore T200 using a CM3 series S sensor chip. Flow cells were activated as previously described (Halary et al., [2002]). Flow cell 1 was functionalized with BSA, blocked with ethanolamine and subsequently used as a control surface. Flow cells 2 and 3 were treated with BSA-Man α1-3[Manα1-6]Man (Dextra) (60 μg/mL) in 10 mM NaOAc pH 4 and blocked with ethanolamine. The final densities on flow cells 2 and 3 were about 2,100 RU. The affinities of the various compounds for DC-SIGN ECD were evaluated via an established inhibition assay (Andreini et al., [2011]) in which DCSIGN ECD was injected at 20 μM alone or in the presence of increasing concentration of inhibitors. Injections were performed at 5 μL/min using 25 mM Tris-HCl pH 8, 150 mM NaCl, 4 mM CaCl2, 0.05% P20 surfactant as running buffer. The surface was regenerated by the injection of 50 mM EDTA. The data was analyzed in BIAcore BIAevaluation software using four parameter equation.

moDCs = experiment: Internalization of biotinylated hexavalent clusters by moDCs (flow cytometry); format: cell-based, human; settings: for internalization by moDCs (loss of surface streptavidin signal) / uptake by immature moDCs: 20 μM cluster; for internalization by moDCs (loss of surface streptavidin signal): live moDCs; for internalization by moDCs (pHrodo-avidin fluorescence increase): clusters pre-complexed with pH-sensitive dye; for uptake by immature moDCs: within 5 min at 37°C
Method: For the internalization, the moDCs were incubated with clusters b6, c6, d6, and e6 for 1 h at 4°C, where after unbound ligands were washed away with ice-cold medium. Warm medium was added to the moDCs, and samples were taken at the indicated time points and put on ice. Upon staining the moDCs with fluorophore-conjugated streptavidin, we could measure the signal loss of the membrane via flow cytometry. To exclude ligand-receptor dissociation before internalization, the moDCs were fixed under gentle conditions, hereby inhibiting receptor-mediated endocytosis. On fixed moDCs the clusters remained at the surface, as no signal loss could be detected (Supplementary Figure 1D). […] The di-mannoside clusters (b6, c6, and d6) were internalized relatively fast, with a 50% uptake within 5 min (Figure 5B). The tri-mannoside cluster e6 however remained longer at the membrane surface and only a 25% uptake was seen after 30 min. Similar results were seen using a pH-sensitive fluorophore. In acidic environments, such as the endosomes and lysosomes, the fluorescence of this dye increases. Pre-complexed clusters mirrored the accelerated uptake of the di-mannoside clusters over the e6 cluster (Supplementary Figure 1E). Although the DC-SIGN mediated uptake mechanism is known (Cambi et al., [2009]), the initiation trigger for endocytosis upon DC-SIGN-ligand binding remains unclear. Recognition of the di-mannoside clusters could induce signaling leading to accelerated uptake, whereas the tri-mannoside cluster could trigger a different signaling pathway. Nonetheless, the clusters harboring the smaller mannosides are preferred. Although the binding affinity of the clusters ranged from 0.9 to 6.6 μM, the di-mannosides induce more rapid DC-SIGN internalization over the tri-mannosides, and can thus increase intracellular peptide concentrations more efficiently for further antigen processing and presentation.
Immature day 5 moDCs were harvested and washed with cold HBSS (Thermo Fischer), after which half of the moDCs were gently fixed for 20 min at RT with 1% PFA in PBS. Afterwards, 20 μM of the different biotinylated mannose-clusters in cold HBSS were added. The moDCs were incubated for 1 h on ice, and washed in cold HBSS. Subsequently, warm HBSS was added to the cells, and cells were incubated at 37°C in a shaking heating block. At the indicated time points, a sample of the cells was taken and put on ice. After the last time point, the cells were stained with Streptavidin-Alexa647 (Thermo Fisher), measured using flow cytometry (CyAn™ ADP with Summit™ Software), and further analyzed using FlowJo v10. The same procedure was used for internalization with pHrodo^TM Red Avidin (Thermo Fischer). The different biotinylated mannose-clusters were however incubated with pHrodo-Avidin (ratio 2:1) for 15 min at 37°C, prior to moDC exposure. The fluorescence upon internalization was measured using flow cytometry (BD LSRFortessa™ X-20 with FACSDiva Software), and further analyzed using FlowJo v10.

DC-SIGN S-ECD = target: T2, DC-SIGN S-ECD (Homo sapiens, UniProt Q9NNX6); experiment: SPR direct interaction assay on oriented DC-SIGN S-ECD surface; format: binding; settings: SPR direct interaction, oriented tetrameric DC-SIGN ECD surface, apparent Kd; read-out: Kdapp
T2 construct: The ECD of DC-SIGN (residues 66–404) was overexpressed and purified as previously described; made in house
T2 sequence (Q9NNX6 66-404): T1 sequence (Q9NNX6 66-404)
Method: as §1
The direct interaction experiments were executed on a T200 Biacore with a CM3 series S sensor chip. Contrary to the competition assay described above, in this test, DC-SIGN ECD used harbors a StreptagII in its N-terminus (DC-SIGN S-ECD) to allow its capture and functionalization onto the surface in an oriented manner. Flow cells were functionalized as previously described (Porkolab et al., [2019]). Briefly, after EDC/NHS activation, flow cells were functionalized with streptactin protein in a first step. Flow cell 1 was used as control, while other flow cells were, in a second round of activation, functionalized with 100 μg/mL of a DC-SIGN S-ECD up to a final density ranging between 2,500 and 3,000 RU, via tag specific capture and linkage by amine coupling chemistry simultaneously. The compounds were injected in running buffer of 25 mM Tris pH 8, 150 mM NaCl, 4 mM CaCl2, 0.05% Tween 20 onto the surface at increasing concentrations with a flow rate of 30 μL/min. The ligand titration led to the determination of an apparent Kd value. The data was analyzed in BIAcore BIAevaluation software for direct interaction 1:1 calculation assuming that the Kd will reflect the affinity of the ligands (glycoclusters) for the DC-SIGN oriented surface used as a whole.

Row | Structure (SMILES) | IC50 (DC-SIGN ECD) [µM] | internalization by moDCs (loss of surface streptavidin signal) (moDCs) | internalization by moDCs (pHrodo-avidin fluorescence increase) (moDCs) | uptake by immature moDCs (moDCs) [%] | Kd (DC-SIGN S-ECD)
1 | CC(=O)N[C@@H](CCCCn1cc(CO[C@H]2O[C@H](CO)[C@@H](O)[C@H](O[C@H]3O[C@H](CO)[C@@H](O)[C@H](O)[C@@H]3O)[C@@H]2O)nn1)C(=O)NCC(=O)N[C@@H](CCCCn1cc(CO[C@H]2O[C@H](CO)[C@@H](O)[C@H](O[C@H]3O[C@H](CO)[C@@H](O)[C@H](O)[C@@H]3O)[C@@H]2O)nn1)C(=O)NCC(=O)N[C@@H](CCCCn1cc(CO[C@H]2O[C@H](CO)[C@@H](O)[C@H](O[C@H]3O[C@H](CO)[C@@H](O)[C@H](O)[C@@H]3O)[C@@H]2O)nn1)C(=O)NCC(=O)N[C@@H](CCCCN)C(N)=O [C3] | 171.9 ± 1.45 |  |  |  | 
2 | CC(=O)N[C@@H](CCCCn1cc(CO[C@H]2O[C@H](CO[C@H]3O[C@H](CO)[C@@H](O)[C@H](O)[C@@H]3O)[C@@H](O)[C@H](O[C@H]3O[C@H](CO)[C@@H](O)[C@H](O)[C@@H]3O)[C@@H]2O)nn1)C(=O)NCC(=O)N[C@@H](CCCCN)C(N)=O [E1] | 1520 ± 250 |  |  |  | 
3 | CC(=O)N[C@@H](CCCCn1cc(CO[C@H]2O[C@H](CO)[C@@H](O)[C@H](O)[C@@H]2O[C@H]2O[C@H](CO)[C@@H](O)[C@H](O)[C@@H]2O)nn1)C(=O)NCC(=O)N[C@@H](CCCCn1cc(CO[C@H]2O[C@H](CO)[C@@H](O)[C@H](O)[C@@H]2O[C@H]2O[C@H](CO)[C@@H](O)[C@H](O)[C@@H]2O)nn1)C(=O)NCC(=O)N[C@@H](CCCCN)C(N)=O [B2] | 189 ± 3.45 |  |  |  | 
4 | CC(=O)N[C@@H](CCCCn1cc(CO[C@H]2O[C@H](CO)[C@@H](O)[C@H](O)[C@@H]2O[C@H]2O[C@H](CO)[C@@H](O)[C@H](O)[C@@H]2O)nn1)C(=O)NCC(=O)N[C@@H](CCCCN)C(N)=O [B1] | 2340 ± 109 |  |  |  | 
5 | CC(=O)N[C@@H](CCCCn1cc(CO[C@H]2O[C@H](CO[C@H]3O[C@H](CO)[C@@H](O)[C@H](O)[C@@H]3O)[C@@H](O)[C@H](O)[C@@H]2O)nn1)C(=O)NCC(=O)N[C@@H](CCCCN)C(N)=O [D1] | 6960 ± 3040 |  |  |  | 
6 | CC(=O)N[C@@H](CCCCn1cc(CO[C@H]2O[C@H](CO)[C@@H](O)[C@H](O)[C@@H]2O[C@H]2O[C@H](CO)[C@@H](O)[C@H](O)[C@@H]2O)nn1)C(=O)N[C@@H](CCCCn1cc(CO[C@H]2O[C@H](CO)[C@@H](O)[C@H](O)[C@@H]2O[C@H]2O[C@H](CO)[C@@H](O)[C@H](O)[C@@H]2O)nn1)C(=O)N[C@@H](CCCCn1cc(CO[C@H]2O[C@H](CO)[C@@H](O)[C@H](O)[C@@H]2O[C@H]2O[C@H](CO)[C@@H](O)[C@H](O)[C@@H]2O)nn1)C(=O)N[C@@H](CCCCn1cc(CO[C@H]2O[C@H](CO)[C@@H](O)[C@H](O)[C@@H]2O[C@H]2O[C@H](CO)[C@@H](O)[C@H](O)[C@@H]2O)nn1)C(=O)N[C@@H](CCCCn1cc(CO[C@H]2O[C@H](CO)[C@@H](O)[C@H](O)[C@@H]2O[C@H]2O[C@H](CO)[C@@H](O)[C@H](O)[C@@H]2O)nn1)C(=O)N[C@@H](CCCCn1cc(CO[C@H]2O[C@H](CO)[C@@H](O)[C@H](O)[C@@H]2O[C@H]2O[C@H](CO)[C@@H](O)[C@H](O)[C@@H]2O)nn1)C(=O)NCC(=O)N[C@@H](CCCCN)C(N)=O [B6] |  | rapidly internalized | internalized rapidly | 50 | 0.95 µM and 0.946 µM and 0.9 µM
7 | CC(=O)N[C@@H](CCCCn1cc(CO[C@H]2O[C@H](CO)[C@@H](O)[C@H](O[C@H]3O[C@H](CO)[C@@H](O)[C@H](O)[C@@H]3O)[C@@H]2O)nn1)C(=O)N[C@@H](CCCCn1cc(CO[C@H]2O[C@H](CO)[C@@H](O)[C@H](O[C@H]3O[C@H](CO)[C@@H](O)[C@H](O)[C@@H]3O)[C@@H]2O)nn1)C(=O)N[C@@H](CCCCn1cc(CO[C@H]2O[C@H](CO)[C@@H](O)[C@H](O[C@H]3O[C@H](CO)[C@@H](O)[C@H](O)[C@@H]3O)[C@@H]2O)nn1)C(=O)N[C@@H](CCCCn1cc(CO[C@H]2O[C@H](CO)[C@@H](O)[C@H](O[C@H]3O[C@H](CO)[C@@H](O)[C@H](O)[C@@H]3O)[C@@H]2O)nn1)C(=O)N[C@@H](CCCCn1cc(CO[C@H]2O[C@H](CO)[C@@H](O)[C@H](O[C@H]3O[C@H](CO)[C@@H](O)[C@H](O)[C@@H]3O)[C@@H]2O)nn1)C(=O)N[C@@H](CCCCn1cc(CO[C@H]2O[C@H](CO)[C@@H](O)[C@H](O[C@H]3O[C@H](CO)[C@@H](O)[C@H](O)[C@@H]3O)[C@@H]2O)nn1)C(=O)NCC(=O)N[C@@H](CCCCN)C(N)=O [C6] |  | rapidly internalized | internalized rapidly | 50 | 1.17 µM
8 | CC(=O)N[C@@H](CCCCn1cc(CO[C@H]2O[C@H](CO)[C@@H](O)[C@H](O)[C@@H]2O[C@H]2O[C@H](CO)[C@@H](O)[C@H](O)[C@@H]2O)nn1)C(=O)NCC(=O)N[C@@H](CCCCn1cc(CO[C@H]2O[C@H](CO)[C@@H](O)[C@H](O)[C@@H]2O[C@H]2O[C@H](CO)[C@@H](O)[C@H](O)[C@@H]2O)nn1)C(=O)NCC(=O)N[C@@H](CCCCn1cc(CO[C@H]2O[C@H](CO)[C@@H](O)[C@H](O)[C@@H]2O[C@H]2O[C@H](CO)[C@@H](O)[C@H](O)[C@@H]2O)nn1)C(=O)NCC(=O)N[C@@H](CCCCN)C(N)=O [B3] |  |  |  |  | 19.5 ± 0.5 µM
